Reference: PubChem BioAssay AID743319 (Broad Institute, 2014)
Active and inactive are the calls of the source.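 How the source made its calls: active means fitted curve reaches 200% activation at or below the highest valid dose tested for that compound; inconclusive means flat fit between 30 and 70% activation, or unreliable fit; inactive means the rest.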

Biological target: Endoplasmic reticulum aminopeptidase 2 (Homo sapiens) (UniProt Q6P179)
Experiment: enhanced ERAP2 Arg-AMC hydrolysis – biochemical, fluorescence plate reader, cherry-picked samples, selectivity assay for selective ERAP1 modulator project, dose response (AID 743319)
Conditions: recombinant ERAP2, Arg-AMC cleavage fluorescence, 1 h; for activation: at 11 µM (top of the series)

Endoplasmic reticulum aminopeptidase 2 (Homo sapiens), sequence (Q6P179 whole entry, looked up): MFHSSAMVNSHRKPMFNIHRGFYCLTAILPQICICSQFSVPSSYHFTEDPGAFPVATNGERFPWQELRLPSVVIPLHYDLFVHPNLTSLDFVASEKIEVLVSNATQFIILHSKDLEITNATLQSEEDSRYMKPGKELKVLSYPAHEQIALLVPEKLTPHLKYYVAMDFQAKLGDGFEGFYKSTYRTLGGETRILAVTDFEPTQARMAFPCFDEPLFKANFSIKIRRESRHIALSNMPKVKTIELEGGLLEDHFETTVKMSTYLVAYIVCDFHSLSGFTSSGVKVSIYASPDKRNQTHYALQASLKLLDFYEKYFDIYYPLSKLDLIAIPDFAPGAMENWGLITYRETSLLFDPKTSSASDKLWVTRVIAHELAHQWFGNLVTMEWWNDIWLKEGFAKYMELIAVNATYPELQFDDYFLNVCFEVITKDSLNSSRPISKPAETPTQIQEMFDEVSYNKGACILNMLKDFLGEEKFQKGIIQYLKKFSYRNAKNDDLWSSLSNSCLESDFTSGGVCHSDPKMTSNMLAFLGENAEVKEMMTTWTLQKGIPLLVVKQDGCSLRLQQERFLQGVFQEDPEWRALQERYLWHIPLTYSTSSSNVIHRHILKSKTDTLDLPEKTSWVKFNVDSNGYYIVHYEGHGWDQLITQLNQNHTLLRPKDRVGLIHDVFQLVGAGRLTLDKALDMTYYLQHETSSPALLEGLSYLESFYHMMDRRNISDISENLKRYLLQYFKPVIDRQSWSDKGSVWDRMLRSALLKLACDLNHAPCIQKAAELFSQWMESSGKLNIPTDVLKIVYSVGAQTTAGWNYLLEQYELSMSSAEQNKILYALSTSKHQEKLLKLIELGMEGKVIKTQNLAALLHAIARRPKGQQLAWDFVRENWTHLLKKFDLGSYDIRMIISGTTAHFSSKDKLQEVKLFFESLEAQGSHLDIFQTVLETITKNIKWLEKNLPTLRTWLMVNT

`COC(=O)[C@H]1[C@H](CO)[C@H]2Cn3c(ccc(/C=C/c4ccccc4)c3=O)[C@@H]1N2C(=O)C1CCC1` was tested, and the AC200 was 1600 nM.

For `CC(=O)N1CCN(C(=O)C2(NC(=O)Nc3ccc(C)cc3)CCCCC2)CC1`, the activation was 2.05% (inactive).

For `Cc1cc(=O)oc2c(CN3CCCC3)c(O)c(Cl)cc12`, the AC200 was 1400 nM.

`Cc1noc(C)c1NC(=O)N(C)C[C@@H]1Oc2c(NC(=O)Nc3ccc(F)cc3)cccc2C(=O)N([C@H](C)CO)C[C@@H]1C` was tested, and the activation was 18.4% (inactive).

For `Cc1ccc2nc3c(cc(C(=O)NCc4ccccc4)c(=N)n3CCCn3ccnc3)c(=O)n2c1`, the AC200 was > 11000 nM (inactive).
